According to patent publication US20240174690A1, “ANNULATED 2-AMINO-3-CYANO THIOPHENES AND DERIVATIVES FOR THE TREATMENT OF CANCER” (BOEHRINGER INGELHEIM INTERNATIONAL GMBH, priority 2021, published 2024):

Columns and labels:
[1] = molecular target: KRAS (G12D)::SOS1 (Homo sapiens (Human), UniProt P01116, G12D); test: KRAS::SOS1 AlphaScreen binding assay, KRAS G12D
Outline: (§1)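 AlphaScreen measurement of compound disruption of biotinylated, GDP-loaded KRAS 1-169 (10 nM; G12C 7.5 nM) binding to GST-SOS1 564-1049 (5 nM with G12D/G12C, 10 nM otherwise), with 10 μM GDP in PBS/0.1% BSA/0.05% Tween 20. Timing was 30 min compound preincubation, then 60 min with beads at room temperature; top concentration 100 μM, 4-parameter IC50.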

[2] = test system: SK-CO-1 cells; test: SK-CO-1 CTG proliferation assay (120 h) (CRC, G12V); assay type: cell-based; details: SK-CO-1 cells (CRC, G12V), CTG 120 h
Outline: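 Compound exposure lasted 120 h in KRAS G12V SK-CO-1 cells seeded overnight at 500 cells/well in 10% FCS EMEM. CellTiter-Glo RLU normalised to DMSO wells gave percent viability, and a four-parameter model fit yielded IC50.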

[3] = test system: KRAS G12D-dependent Ba/F3 cells; test: Ba/F3 proliferation assay, KRAS G12D; assay type: cell-based; details: AlamarBlue
Outline: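 Cells: murine Ba/F3 transduced with mutant KRAS by retrovirus, selected with 1 μg/mL puromycin, then weaned off IL-3. Compound exposure in duplicate, followed by AlamarBlue viability staining and curve fitting.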

[4] = molecular target: KRAS (G12C)::SOS1 (Homo sapiens (Human), UniProt P01116, C118S/C51S/C80L/G12C); test: KRAS::SOS1 AlphaScreen binding assay, KRAS G12C
Outline: as §1

Sequence of KRAS (G12D)::SOS1 (P01116 other isoform, or with tags, fused parts or gaps G12D): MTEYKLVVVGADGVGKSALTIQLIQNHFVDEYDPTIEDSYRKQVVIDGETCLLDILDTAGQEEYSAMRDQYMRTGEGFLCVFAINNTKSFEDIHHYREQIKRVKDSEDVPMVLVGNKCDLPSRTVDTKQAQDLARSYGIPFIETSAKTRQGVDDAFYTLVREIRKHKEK
Sequence of KRAS (G12C)::SOS1 (P01116 other isoform, or with tags, fused parts or gaps G12C/C51S/C80L/C118S): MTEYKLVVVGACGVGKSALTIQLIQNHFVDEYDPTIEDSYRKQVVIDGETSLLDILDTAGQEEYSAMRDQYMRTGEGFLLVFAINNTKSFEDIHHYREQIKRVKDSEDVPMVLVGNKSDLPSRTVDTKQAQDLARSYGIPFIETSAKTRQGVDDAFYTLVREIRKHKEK

Row | SMILES | IC50 [1] | IC50 ([2]; Homo sapiens) | IC50 ([3]; Mus musculus, BaF3, 72 h) | IC50 [4] | IC50 [2] | IC50 ([3]; 72 h)
1 | C[C@H](Oc1cc(-n2ccc(C(=O)N[C@@H]3CCOC3)n2)nc(-c2noc3c2CCC[C@@]32CCCc3sc(N)c(C#N)c32)n1)[C@@H]1CCCN1C [II-192] | 1 nM | 4 nM | 13 nM | 1 nM |  | 
2 | C[C@H](Oc1cc(-n2ccc(C(=O)N[C@H]3CCOC3)n2)nc(-c2noc3c2CCC[C@@]32CCCc3sc(N)c(C#N)c32)n1)[C@@H]1CCCN1C [II-193] | 1 nM |  |  | 1 nM | 3 nM | 9 nM
3 | C[C@H](Oc1cc(-n2ccc(C(=O)N(C)C3COC3)n2)nc(-c2noc3c2CCC[C@@]32CCCc3sc(N)c(C#N)c32)n1)[C@@H]1CCCN1C [II-194] | 1 nM | 11 nM | 22 nM | 1 nM |  | 
4 | COCCNC(=O)c1ccn(-c2cc(O[C@@H](C)[C@@H]3CCCN3C)nc(-c3noc4c3CCC[C@@]43CCCc4sc(N)c(C#N)c43)n2)n1 [II-195] | 1 nM | 4 nM | 14 nM | 1 nM |  | 
5 | CO[C@H]1CCN(C)[C@@H]1[C@H](C)Oc1cc(-n2ccc(C(=O)N[C@@H](C)c3ccccn3)n2)nc(-c2noc3c2CCC[C@@]32CCCc3sc(N)c(C#N)c32)n1 [II-196] | 1 nM | 4 nM | 9 nM | 1 nM |  | 
6 | CO[C@H]1CCN(C)[C@@H]1[C@H](C)Oc1cc(-n2ccc(C(=O)N[C@@H]3CCOC3)n2)nc(-c2noc3c2CCC[C@@]32CCCc3sc(N)c(C#N)c32)n1 [II-197] | 1 nM | 4 nM | 6 nM | 1 nM |  | 
7 | CO[C@H]1CCN(C)[C@@H]1[C@H](C)Oc1cc(-n2ccc(C(=O)N[C@H]3CCOC3)n2)nc(-c2noc3c2CCC[C@@]32CCCc3sc(N)c(C#N)c32)n1 [II-198] | 1 nM | 3 nM | 4 nM | 1 nM |  | 
8 | CO[C@H]1CCN(C)[C@@H]1[C@H](C)Oc1cc(-n2ccc(C(=O)N(C)C3COC3)n2)nc(-c2noc3c2CCC[C@@]32CCCc3sc(N)c(C#N)c32)n1 [II-199] | 1 nM | 17 nM | 16 nM | 1 nM |  | 
9 | COCCNC(=O)c1ccn(-c2cc(O[C@@H](C)[C@@H]3[C@@H](OC)CCN3C)nc(-c3noc4c3CCC[C@@]43CCCc4sc(N)c(C#N)c43)n2)n1 [II-200] | 1 nM | 5 nM | 8 nM | 1 nM |  | 
10 | CO[C@H]1CCN(C)[C@@H]1[C@H](C)Oc1cc(-n2ccc(C(N)=O)n2)nc(-c2noc3c2CCC[C@@]32CCCc3sc(N)c(C#N)c32)n1 [II-201] | 2 nM | 9 nM | 18 nM | 1 nM |  | 
11 | C[C@H](Oc1cc(-n2cc3ccn([C@H]4CCOC4)c(=O)c3n2)nc(-c2noc3c2CCC[C@@]32CCCc3sc(N)c(C#N)c32)n1)[C@@H]1CCCN1C [II-202] | 1 nM | 6 nM | 56 nM | 1 nM |  | 
12 | C[C@H](Oc1cc(-n2cc3ccn([C@@H]4CCOC4)c(=O)c3n2)nc(-c2noc3c2CCC[C@@]32CCCc3sc(N)c(C#N)c32)n1)[C@@H]1CCCN1C [II-203] | 2 nM | 12 nM | 59 nM | 2 nM |  | 
13 | C[C@H](Oc1cc(-n2cc3ccn(C[C@H]4CCOC4)c(=O)c3n2)nc(-c2noc3c2CCC[C@@]32CCCc3sc(N)c(C#N)c32)n1)[C@@H]1CCCN1C [II-204] | 2 nM | 14 nM | 62 nM | 1 nM |  | 
14 | C[C@H](Oc1cc(-n2cc3ccn([C@@H](C)c4ccccn4)c(=O)c3n2)nc(-c2noc3c2CCC[C@@]32CCCc3sc(N)c(C#N)c32)n1)[C@@H]1CCCN1C [II-205] | 8 nM | 31 nM | 85 nM | 2 nM |  | 
15 | C[C@H](Oc1cc(-n2cc3ccn(C4CCOCC4)c(=O)c3n2)nc(-c2noc3c2CCC[C@@]32CCCc3sc(N)c(C#N)c32)n1)[C@@H]1CCCN1C [II-206] | 1 nM | 11 nM | 63 nM | 2 nM |  | 
16 | [2H]C([2H])([2H])N1C[C@H](F)C[C@H]1[C@H](C)Oc1cc(N2CCN(C([2H])([2H])[2H])C3(CC3)C2)nc(-c2noc3c2CCC[C@@]32CCCc3sc(N)c(C#N)c32)n1 [II-207] | 1 nM | 1260 nM | 18 nM | 6 nM |  | 
17 | C[C@H](Oc1cc(-n2ccc(-c3cn(C4CCOCC4)nn3)n2)nc(-c2noc3c2CCC[C@@]32CCCc3sc(N)c(C#N)c32)n1)[C@@H]1CCCN1C [II-210] | 1 nM | 3 nM | 23 nM | 2 nM |  | 
18 | C[C@H](Oc1cc(-n2ccc(-c3cn([C@@H]4CCOC4)nn3)n2)nc(-c2noc3c2CCC[C@@]32CCCc3sc(N)c(C#N)c32)n1)[C@@H]1CCCN1C [II-211] | 1 nM | 4 nM | 28 nM | 2 nM |  | 
19 | C[C@H](Oc1cc(-n2ccc(-c3cn([C@H]4CCOC4)nn3)n2)nc(-c2noc3c2CCC[C@@]32CCCc3sc(N)c(C#N)c32)n1)[C@@H]1CCCN1C [II-212] | 1 nM | 4 nM | 10 nM | 2 nM |  | 
20 | C[C@H](Oc1cc(-n2ccc(-c3cn(CC4(C)COC4)nn3)n2)nc(-c2noc3c2CCC[C@@]32CCCc3sc(N)c(C#N)c32)n1)[C@@H]1CCCN1C [II-213] | 1 nM | 7 nM | 43 nM | 2 nM |  | 
21 | CNC1CCN(c2cc(O[C@@H](C)[C@@H]3CCCN3C)nc(-c3noc4c3CCC[C@@]43CCCc4sc(N)c(C#N)c43)n2)CC1 [II-214] | 1 nM | 5350 nM | 1710 nM | 9 nM |  | 
